Test results as given in a melting point compilation (Tetko et al.).

Structure (SMILES)	melting point [°C]
O=C(CCl)c1ccc(O)cc1O	108 to 110
COc1ccc(NC(=O)OCC(F)(F)F)cc1	79 to 81
Cc1nc(N2CCCC2)[nH]c(=O)c1CC(=O)O	262 to 264
CCn1c2ccccc2c2cc(CNCCCO)ccc21	76 to 78
O=C(c1cccnc1)c1cc2ccccc2o1	106 to 108
COC(=O)c1cc2c(nc1N)CCC2	132 to 134
Cn1cnnc1-c1ccc(N)cc1	256 to 258
O=C(O)CSCc1nc2scc(-c3cccs3)c2c(=O)[nH]1	148 to 150
Cc1ccc(S(=O)(=O)N2CCC(=O)CC2)cc1	125 to 127
Cc1oc(-c2ccsc2)nc1CCl	101 to 103
CCn1nc(C)c(S(=O)(=O)Cl)c1C	34 to 36
CC(C)S(=O)(=O)Nc1ccc(S(N)(=O)=O)cc1F	134 to 136
NNC(=O)c1ccc(CSc2nc3ccccc3[nH]2)cc1	64 to 66
COc1ccc(NC(=O)Nc2ccc(OC)nc2)cn1	215 to 217
NN1CCCC1=O	47 to 49
O=C(O)c1cc(-c2c(F)cccc2F)no1	181 to 183
COc1ccccc1NS(=O)(=O)c1cc(N)ccc1N1CCOCC1	197 to 199
CCOC(=O)c1c(C)[nH]c(C(=O)CCl)c1C	188 to 190
Nc1cnn(CC(=O)NCCO)c1	98 to 100
N#Cc1oc2ccccc2c1O	138 to 140
CC(CS(=O)(=O)c1ccc(F)cc1)C(=O)O (centres undefined)	128 to 130
Nc1nnc(SCc2cccs2)s1	141 to 143
CCC(=O)c1cnn(C)c1	44 to 46

Structure (SMILES)	melting point [°C]
CC(=O)NCCCCCC(N)=O	112 to 114
CNC(=O)CS(=O)(=O)c1ccc(C(=O)O)cc1	249 to 251
CCc1ncc(N)cn1	125 to 127
Cc1nc(/C=C/C(=O)O)cs1	177 to 179
O=C(O)CSCc1cc(-c2cccs2)on1	113 to 115
NC(=O)C(O)C1CC1 (centres undefined)	115 to 117
NC(=O)NC(C(=O)O)c1ccccc1 (centres undefined)	201 to 203
O=C1CCNc2ncccc2N1	263 to 265
Cn1c(CC#N)nc2ccccc21	129 to 131
Cc1cccn2cc(CC(N)=S)nc12	153 to 155
COc1ccc(-c2[nH]c3ccc(F)cc3c2CCC(=O)O)cc1	134 to 138
CC1CCCN(c2ccccc2O)C1 (centres undefined)	44 to 46
NNC(=O)C1Cc2ccccc2O1 (centres undefined)	150 to 152
O=C(O)c1cc(/C=C/c2cccc(Br)c2)nc2ccc(Br)cc12	307 to 309
O=C1c2ccccc2C(=O)N1CCc1ncc[nH]1	243 to 245
COc1cn(-c2ccccc2)nc1C(=O)O	144 to 148
Cc1ccc(SCC(=O)Nc2ccccc2C)c(N)c1	115 to 117
CC(C)NC(=O)Nc1ccccc1C(=O)O	178 to 180
Cc1ccc(S(=O)(=O)N(O)c2ccccc2)cc1	36 to 40
CC(=O)c1ccc(N(C)C)cc1	105 to 107
O=C(O)C1CCCCN1C1=NS(=O)(=O)c2ccccc21 (centres undefined)	185 to 187
NC(=S)c1ccc(NC(=O)c2ccco2)cc1	258 to 260
COc1ccc(C(=O)Nc2ccc(C(=O)O)s2)cc1	198 to 200

Structure (SMILES)	melting point [°C]
CCOC=C(C#N)C(=O)O	63 to 65
O=C(O)c1cc(C2CC2)nc2ccccc12	208 to 210
Cc1cc(C(=O)O)c(C)n1-c1nccs1	173 to 175
O=C(O)C1(O)CCCCC1	102 to 104
CCOC(=O)c1sc2nc(CN3CCCCC3)nc(Cl)c2c1C	105 to 107
O=c1ccn(C2CC2)c(S)n1	238 to 240
O=[N+]([O-])c1cnccc1NC1CC1	105 to 107
Sc1nnc(N2CCOCC2)s1	179 to 181
Nc1ccc(N2CCCC2=O)cc1	125 to 127
COC(=O)c1cc(OC)c(OC)c(OC)c1N	44 to 45
CC(C)(C)OC(=O)N1CCNC(C#N)C1 (centres undefined)	109 to 111
NNC(=O)C(=O)Nc1ccccn1	179 to 181
O=c1[nH]c(N2CCOCC2)cc2ccccc12	212 to 214
COC(=O)c1oc2ccccc2c1C	70 to 72
Cc1n[nH]c(-c2ccc(N)cc2)n1	179 to 181
CC(=O)Nc1ccsc1	146 to 148
COC(=O)Cn1cnc(N)n1	136 to 138
Clc1nnc(-c2cccs2)c2ccccc12	128 to 130
CC(C)(C)NS(=O)(=O)c1cccc(N)c1	137 to 139
O=C(O)CNS(=O)(=O)c1ccc(Cl)s1	142 to 144
Nc1nc2ncccc2[nH]1	268 to 270
NC(=O)CCN(C(=O)CCl)c1ccccc1	143 to 145
CSCc1cc(C(=O)O)sc1C	135 to 137

Structure (SMILES)	melting point [°C]
Cc1cc2nc(-c3ccccc3)cc(C(=O)O)c2cc1C	251 to 253
COc1ccc(S(=O)(=O)N2CCC(=O)CC2)cc1	126 to 128
NC(=NO)c1cc2ccccc2o1	183 to 185
Cc1cc(O)nc(C(C)(C)C)n1	177 to 179
CC(C)NC(=O)NCc1ccc(C(=O)O)cc1	168 to 170
Nc1ccnn1C1CCS(=O)(=O)C1 (centres undefined)	169 to 171
CCOC(=O)c1ccc(-n2c(C)nc3ccccc3c2=O)cc1	173 to 175
CC1(c2ccc(F)cc2F)NC(=O)NC1=O (centres undefined)	194 to 196
Nc1cccc2c1C(=O)N(C1CC1)C2=O	159 to 161
CC1=CC=CC(=C2Nc3ccc(F)cc3N2C(C)C)C1=N	160 to 162
O=C(O)c1cnoc1-c1ccccc1	149 to 151
O=C(c1cccnc1)c1ccc(F)cc1F	54 to 56
Cc1nn(C)c(C)c1CCC(=O)O	137 to 139
Nc1nnc(-c2cnn(-c3ccccc3)c2)o1	283 to 285
CC(C)(C)n1ncc(Cl)c(Cl)c1=O	64 to 66
COC(=O)/C=C1\SCC(=O)N1CCCCl	95 to 97
Cc1cc(C)nc(SCC(=O)O)n1	130 to 132
O=C(O)/C=C/c1cc(Cl)c2c(c1)OCCCO2	178 to 180
O=C(CCl)N1CCN(C(=O)C2COc3ccccc3O2)CC1 (centres undefined)	199 to 201
O=C(NC(Cc1ccccc1)C(=O)O)c1cccnc1 (centres undefined)	206 to 208
O=C(O)Cc1csc(-c2ccsc2)n1	110 to 112
N#Cc1nc(-c2ccccc2)oc1NN	209 to 211
O=C(NO)c1ccc(Br)s1	152 to 160

Next, values leading:

melting point [°C]	Structure (SMILES)
219 to 221	Nc1nnc(-c2ccc(Br)c(F)c2)s1
111 to 115	COc1cc(C=O)ccc1OCc1c(C)noc1C
67 to 69	Nc1ccnn1CCc1ccccc1
145 to 147	Nc1cccc2[nH]ncc12
203 to 205	N#Cc1ccc2[nH]cnc2c1
34 to 36	COc1cc(C=O)cc(Cl)c1OC(C)C
183 to 185	CCOC(=O)c1c(C)n(CC)c2ccc(O)cc12
114 to 117	Nc1ccc(F)c(F)c1N
163 to 165	Cc1ccc2c(c1)C(=O)N(CCC(=O)O)C2=O
218 to 220	NC1=NN(c2c(Cl)cc(Cl)cc2Cl)C(=O)C1
218 to 220	Nc1cccnc1C(=O)O
236 to 238	COc1ccc2c(c1)C(=NO)C(=O)N2
43 to 45	COCc1cc([N+](=O)[O-])ccc1Cl
163 to 167	NC(=O)Nc1cccc(Br)c1
218 to 220	CC(C)NS(=O)(=O)c1ccc(Cl)c(C(=O)O)c1Cl
112 to 114	Cc1nc(-c2ccncc2)nc(Cl)c1C
65 to 68	COC(=O)c1cccc(OC)c1O
59 to 61	Cc1cc(Cl)cc2nc(Cl)oc12
161 to 163	CCN(CC)S(=O)(=O)c1ccc(F)c(C(=O)O)c1
179 to 181	Cc1cc(C)n(Cc2ccc(C(=O)O)cc2)n1
114 to 116	COc1ccc(S(=O)(=O)N2CCCCCC2)cc1C(=O)O
51 to 53	N#CCC(=O)c1ccccc1F
102 to 104	Cc1cc(NS(C)(=O)=O)ccc1Br
134 to 136	COC(=O)c1cc2nc(Cl)ccc2n1C
142 to 144	Nc1cc(Br)ccc1S(N)(=O)=O
163 to 165	CC(C)N1C(=O)CC(C(=O)O)C1c1ccc(Cl)c(F)c1 (centres undefined)

melting point [°C]	Structure (SMILES)
125 to 127	NC(=O)CCCOc1ccc(F)cc1
111 to 113	CC(N)CCc1ccc(O)cc1 (centres undefined)
93 to 95	O=Cc1ccccc1OCC(=O)NCC1CC1
64 to 66	O=C(Nc1ccccc1)OCCBr
54 to 56	COC(=O)c1ccc(CN2CCC(CO)CC2)cc1
129 to 131	CNS(=O)(=O)c1cccc(CN)c1
257 to 259	COc1cc(C(=O)O)ccc1OCC(N)=O
108 to 110	O=C(c1ccc(Cl)cc1Cl)N1CCNCC1
166 to 168	N#CCc1cccc(C(=O)O)c1
314 to 316	O=C(O)c1ccc(-n2ncc(Cl)c(Cl)c2=O)cc1
157 to 159	O=C(O)c1ccc(OCC(=O)C2CC2)cc1
81 to 83	COc1ccccc1C(C)=CC(=O)O
149 to 151	CCCc1cc(=O)[nH]c(-c2ccccc2)n1
103 to 105	COc1ccc(OC)c(S(=O)(=O)N2CCNCC2)c1
146 to 148	O=C(O)CCNS(=O)(=O)c1cccc(Br)c1
39 to 41	CCCCOc1cc(C=O)ccc1OC
199 to 201	Cn1cc(C(=O)O)c(-c2ccc3c(c2)OCCCO3)n1
62 to 64	CCOC(=O)C(=O)CC(=O)c1ccc(Cl)cc1
117 to 119	Cc1ccc(CNC(=O)CCl)cc1
57 to 59	Clc1ccc(Cl)c(OCCBr)c1
29 to 31	O=Cc1cccc(OCC(F)(F)F)c1
132 to 134	CC(C)COc1cn(-c2ccccc2)nc1C(=O)O
263 to 265	Oc1ccc(-c2nc3cc(Cl)ccc3s2)cc1
70 to 72	Nc1ccc(Oc2ccc(Cl)cn2)cc1
128 to 130	Cc1ccc(C)c(-n2ccnc2SCC(=O)O)c1
62 to 64	COc1cc(CC#N)ccc1OCC(F)(F)F
